Measurements taken from the supplement of paper PMC13380429.
Where a name gives a salt, the structure may show the parent alone.

Experiments:
Conditions in all cases: 72 h
U2OS [1] = assay: relative viability EC50 (midpoint between 100% and the lowest measured viability); higher = less toxic
Vero E6 [2] = assay: as above
HepG2 [3] = assay: as above
Caco-2 [4] = assay: as above
Calu-3 [5] = assay: as above
U2OS [6] = assay: cell viability relative to DMSO; higher = less toxic
Vero E6 [7] = assay: as above
HepG2 [8] = assay: as above
Caco-2 [9] = assay: as above
Calu-3 [10] = assay: as above
U2OS [11] = assay: drug sensitivity score (DSS) for viability; higher = more toxic; extreme values may be limits of the assay
Vero E6 [12] = assay: as above
HepG2 [13] = assay: as above
Caco-2 [14] = assay: as above
Calu-3 [15] = assay: as above

Row | SMILES | relative viability EC50 (U2OS [1]) [µM] | relative viability EC50 (Vero E6 [2]) [µM] | relative viability EC50 (HepG2 [3]) [µM] | relative viability EC50 (Caco-2 [4]) [µM] | relative viability EC50 (Calu-3 [5]) [µM] | cell viability (U2OS [6]; 1 nM) [%] | cell viability (U2OS [6]; 10 nM) [%] | cell viability (U2OS [6]; 100 nM) [%] | cell viability (U2OS [6]; 1000 nM) [%] | cell viability (U2OS [6]; 10000 nM) [%] | cell viability (Vero E6 [7]; 1 nM) [%] | cell viability (Vero E6 [7]; 10 nM) [%] | cell viability (Vero E6 [7]; 100 nM) [%] | cell viability (Vero E6 [7]; 1000 nM) [%] | cell viability (Vero E6 [7]; 10000 nM) [%] | cell viability (HepG2 [8]; 1 nM) [%] | cell viability (HepG2 [8]; 10 nM) [%] | cell viability (HepG2 [8]; 100 nM) [%] | cell viability (HepG2 [8]; 1000 nM) [%] | cell viability (HepG2 [8]; 10000 nM) [%] | cell viability (Caco-2 [9]; 1 nM) [%] | cell viability (Caco-2 [9]; 10 nM) [%] | cell viability (Caco-2 [9]; 100 nM) [%] | cell viability (Caco-2 [9]; 1000 nM) [%] | cell viability (Caco-2 [9]; 10000 nM) [%] | cell viability (Calu-3 [10]; 1 nM) [%] | cell viability (Calu-3 [10]; 10 nM) [%] | cell viability (Calu-3 [10]; 100 nM) [%] | cell viability (Calu-3 [10]; 1000 nM) [%] | cell viability (Calu-3 [10]; 10000 nM) [%] | drug sensitivity score (U2OS [11]) | drug sensitivity score (Vero E6 [12]) | drug sensitivity score (HepG2 [13]) | drug sensitivity score (Caco-2 [14]) | drug sensitivity score (Calu-3 [15])
1 | COc1ccc2c(c1)C(=O)N(CCc1ccc(S(=O)(=O)NC(=O)NC3CCCCC3)cc1)C(=O)C2(C)C [gliquidone] | > 10 | > 10 | > 10 | > 10 | > 10 | 91 | 89.3 | 102 | 87.1 | 95.9 | 97.8 | 99.5 | 92.3 | 100 | 94.9 | 103 | 98.9 | 96.4 | 106 | 106 | 88.1 | 95.3 | 109 | 102 | 101 | 106 | 96.5 | 99.9 | 104 | 106 | 0 | 0 | 0 | 0 | 0
2 | COc1cccc(C2(O)CCCCC2CN(C)C)c1 (stereo not given) [TRAMADOL HYDROCHLORIDE] | > 10 | > 10 | > 10 | > 10 | > 10 | 103 | 105 | 97.5 | 99.3 | 99.9 | 101 | 103 | 101 | 97.4 | 101 | 93.5 | 96.8 | 97.4 | 89.8 | 106 | 93.9 | 100 | 96.2 | 95.2 | 98.3 | 106 | 98.2 | 115 | 101 | 96.2 | 0 | 0 | 0 | 0 | 0
3 | Cc1cc2nc3c(=O)[nH]c(=O)nc-3n(C[C@H](O)[C@H](O)[C@H](O)COP(=O)(O)O)c2cc1C [riboflavin-5-phosphate-sodium] | > 10 | > 10 | > 10 | > 10 | > 10 | 102 | 97.9 | 94.4 | 98.2 | 91.9 | 101 | 102 | 97.2 | 95.7 | 97.2 | 97.8 | 104 | 101 | 98 | 108 | 97.8 | 104 | 103 | 100 | 90.3 | 91.4 | 102 | 92.7 | 104 | 99.8 | 0 | 0 | 0 | 0 | 0
4 | O=C(/C=C/N1C[C@H]2C[C@@H]1CN2c1ccccn1)c1ccccc1O [PFI-3] | > 10 | > 10 | > 10 | > 10 | > 10 | 92.6 | 99.7 | 96.1 | 99.7 | 101 | 99.3 | 90.4 | 99.6 | 93.8 | 104 | 97.3 | 99.8 | 110 | 99.5 | 96.2 | 92 | 94.5 | 88.5 | 98.1 | 106 | 101 | 115 | 98.1 | 96.1 | 107 | 0 | 0 | 0 | 0 | 0
5 | C/C(=C(\CCOP(=O)(O)O)SC(=O)c1ccccc1)N(C=O)Cc1cnc(C)nc1N [benfotiamine] | > 10 | > 10 | > 10 | > 10 | > 10 | 99.1 | 101 | 95.7 | 98.5 | 99.5 | 100 | 98.3 | 98.9 | 97.4 | 96.2 | 95.1 | 92.4 | 88.4 | 92.7 | 97 | 99.7 | 101 | 91 | 94.6 | 89.1 | 97.2 | 96.9 | 95.8 | 95.4 | 92.1 | 0 | 0 | 0 | 0 | 0
6 | CN(C)c1cc(CNCC(C)(C)C)c(O)c2c1C[C@H]1C[C@H]3[C@H](N(C)C)C(O)=C(C(N)=O)C(=O)[C@@]3(O)C(O)=C1C2=O [omadacycline] | > 10 | > 10 | > 10 | > 10 | > 10 | 102 | 103 | 99.9 | 102 | 98.2 | 96.3 | 101 | 97.1 | 98.8 | 97.3 | 101 | 90.9 | 96.9 | 105 | 87 | 107 | 95.1 | 100 | 97.4 | 96.4 | 108 | 91.4 | 102 | 88.9 | 92.4 | 0 | 0 | 0 | 0 | 0.3
7 | COC(=O)CN1CN(c2ccccc2)C2(CCN(Cc3cccc4ccccc34)CC2)C1=O [NNC-63-0532] | > 10 | > 10 | > 10 | > 10 | > 10 | 100 | 96.1 | 94.9 | 102 | 98.7 | 90.2 | 97.3 | 96.5 | 90.7 | 103 | 93.5 | 104 | 99.6 | 95 | 99.8 | 102 | 96.3 | 95 | 99.7 | 96.9 | 98.2 | 106 | 97.7 | 114 | 102 | 0 | 0 | 0 | 0 | 0
8 | O=C(O)c1ccc2c(c1)C(=O)N(c1cccc(Oc3ccc([N+](=O)[O-])cc3)c1)C2=O | > 10 | > 10 | > 10 | > 10 | > 10 | 95.5 | 99 | 94.6 | 99 | 94.3 | 94.1 | 99.7 | 98.7 | 90.1 | 100 | 104 | 94.8 | 95.5 | 92.9 | 103 | 92.5 | 102 | 98 | 94.7 | 100 | 94.8 | 96.5 | 104 | 96.8 | 99 | 0 | 0 | 0 | 0 | 0
9 | O=C(O)C1=CCCNC1 [guvacine] | > 10 | > 10 | > 10 | > 10 | > 10 | 105 | 98.9 | 102 | 96.5 | 102 | 100 | 101 | 98 | 104 | 97.5 | 102 | 97 | 96.3 | 100 | 105 | 99.7 | 85.6 | 102 | 102 | 96.5 | 106 | 99 | 102 | 88.2 | 92.2 | 0 | 0 | 0 | 0 | 0.4
10 | COc1c(C)c2c(c(O)c1C/C=C(\C)CCC(=O)O)C(=O)OC2 [mycophenolic-acid] | 1.03 | 1.29 | 0.686 | 1.13 | 0.814 | 98.3 | 102 | 94.7 | 62.6 | 21.9 | 96.1 | 103 | 96.2 | 75.2 | 34.2 | 101 | 95.7 | 95.2 | 57.5 | 31.8 | 93.1 | 102 | 103 | 77.5 | 47 | 96.3 | 96.2 | 97.2 | 71.3 | 49.5 | 8.7 | 6.7 | 9 | 5.8 | 6
11 | Nc1cccc(-c2cc3c(Oc4cccc(O)c4)ncnc3[nH]2)c1 [TWS-119] | 2.82 | 1.59 | > 10 | 1.85 | 2.79 | 103 | 108 | 102 | 96.6 | 25.2 | 110 | 101 | 101 | 82.2 | 24.9 | 113 | 107 | 128 | 104 | 90.1 | 99.3 | 99.4 | 98.2 | 89.5 | 40.4 | 108 | 97.8 | 86.2 | 96.4 | 25.7 | 4.6 | 7 | 0 | 5 | 4.6
12 | NC(=O)C1=CN([C@@H]2O[C@H](COP(=O)(O)OP(=O)(O)OC[C@H]3O[C@@H](n4cnc5c(N)ncnc54)[C@H](O)[C@@H]3O)[C@@H](O)[C@H]2O)C=CC1 [coenzyme-I] | > 10 | > 10 | > 10 | > 10 | > 10 | 103 | 97.5 | 101 | 95.9 | 113 | 93 | 96.4 | 89.3 | 97.2 | 105 | 93.3 | 103 | 89.4 | 111 | 90.2 | 103 | 94.2 | 88.7 | 98.7 | 108 | 91.4 | 92.2 | 100 | 93.2 | 97.3 | 0 | 0 | 0 | 0 | 0
13 | S=C=Nc1ccc(N=C=S)cc1 [bitoscanate] | > 10 | > 10 | > 10 | > 10 | > 10 | 94.2 | 101 | 96.3 | 100 | 105 | 90.7 | 93.6 | 93.5 | 92.2 | 104 | 97.9 | 82.6 | 103 | 91 | 105 | 91.8 | 96.6 | 101 | 106 | 103 | 104 | 103 | 94.6 | 95.3 | 102 | 0 | 0 | 0 | 0 | 0
